The values that follow come from US20050187240A1, “Aaptamine and isoaaptamine and structural modifications thereof” (The Arizona Board of Regents, Acting for and on behalf of …, priority 2004, published 2005).

Molecules are shown by their SMILES. Where a name gives a salt, the structure may show the parent alone. Read-outs that look alike come from different tables or passages of the source.

The test system of data set [1] is Stenotrophomonas maltophilia. In words: Broth microdilution susceptibility assay, Stenotrophomonas maltophilia. Type of data set: cell-based. The conditions noted are these: for MIC: read-out: Range of minimum inhibitory concentration. On the technique in general: Dilution methods test growth across graded concentrations, often in twofold steps.
Another data set concerns Cryptococcus neoformans. The data set is described as follows: Broth microdilution susceptibility assay, Cryptococcus neoformans. Type of data set: cell-based.
The test system of the next data set is pancreas BXPC-3. The data set is described as follows: Cancer cell growth inhibition, pancreas BXPC-3. Type of data set: cell-based, human. The conditions noted are these: Homo sapiens. The method, then:
(§1) Biology The cancer cell growth inhibitory properties were examined using the murine P388 lymphocytic leukemia cell line and a selection of human cancer cell lines.
(§2) All of the synthetic products were evaluated against a minipanel of human cancer cell lines, the murine P388 lymphocytic leukemia cell line and a selection of microorganisms.

In data set [2] the target is T1, PKC alpha (Homo sapiens, UniProt P17252). The data set is described as follows: Inhibition of PKC catalytic activity (peptide substrate phosphorylation). As to conditions: for inhibition at 30 µM: read-out: percent inhibition of PKC catalytic activity. Format: biochemical. From the text: We further evaluated the ability of the derivatives to inhibit PKC catalytic activity. […] Inhibition by 10c was 19.5±7.6% and inhibition by 4, 5, and 9a, b, c was 6% or less (all values are mean±SEM, three experiments). […] In both cases, the inhibition curves were steeper than predicted for a competitive inhibitor, consistent with a complicated mechanism of action (Hill coefficients for 10a and 10b of 1.5±0.1 and 2.0±0.5, respectively).

The next data set has as its system Enterobacter cloacae. In words: Broth microdilution susceptibility assay, Enterobacter cloacae. Type of data set: cell-based.
Another data set deals with Candida albicans. The data set is described as follows: Broth microdilution susceptibility assay, Candida albicans. Type of data set: cell-based.
The subject of another data set is Escherichia coli. The data set is described as follows: Broth microdilution susceptibility assay, Escherichia coli. Type of data set: cell-based.
The next data set deals with Staphylococcus aureus. In words: Broth microdilution susceptibility assay, Staphylococcus aureus. Type of data set: cell-based.
The test system of another data set is colon KM 20L2. The data set is described as follows: Cancer cell growth inhibition, colon KM 20L2. Type of data set: cell-based, human. The conditions noted are these: Homo sapiens. The method, boiled down:
(§3)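 Growth inhibition in murine P388 leukemia and human cancer cell line panels (Arizona State University minipanel and NCI 60-cell screen).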

The test system of another data set is lung NCI-H460. In words: Cancer cell growth inhibition, lung NCI-H460. Format: cell-based, human. The conditions noted are these: Homo sapiens. Put shortly: as §3
Another data set relates to prostrate DU-145. The data set is described as follows: Cancer cell growth inhibition, prostate DU-145. Type of data set: cell-based, human. The conditions noted are these: Homo sapiens. The method, then:
as §1, §2

The subject of another data set is Vero cells. As to conditions: cited from earlier work.
The next data set relates to CNS SF-268. In words: Cancer cell growth inhibition, CNS SF-268. Type of data set: cell-based, human. As to conditions: Homo sapiens. On the procedure: as §1, §2
Another data set has as its system breast MCF-7. In words: Cancer cell growth inhibition, breast MCF-7. Type of data set: cell-based, human. As to conditions: Homo sapiens. The method, then: as §1, §2
A further data set has as its system Enterococcus faecalis. In words: Broth microdilution susceptibility assay, Enterococcus faecalis. Format: cell-based.
In the next data set the test system is Neisseria gonorrhoeae. The data set is described as follows: Broth microdilution susceptibility assay, Neisseria gonorrhoeae. Format: cell-based.
Data set [3] has as its system herpes simplex virus type 1 (HSV-1). As to conditions: cited from earlier work.
Data set [4] deals with murine P388 lymphocytic leukemia cell line. In words: Cancer cell growth inhibition, murine P388 lymphocytic leukemia cell line. Type of data set: cell-based. As to conditions: Mus musculus. The method, boiled down: as §3
In a further data set the test system is Micrococcus luteus. In words: Broth microdilution susceptibility assay, Micrococcus luteus. Format: cell-based.
The next data set has as its system Streptococcus pneumoniae. The data set is described as follows: Broth microdilution susceptibility assay, Streptococcus pneumoniae. Type of data set: cell-based.
Data set [5] deals with T1, PKC alpha. In words: Inhibition of [3H]phorbol 12,13-dibutyrate binding to PKC alpha. As to conditions: read-out: inhibition of [3H]phorbol 12,13-dibutyrate binding to PKC alpha. The method, boiled down:
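Compounds tested at a single 30 μM concentration for displacement of [3H]phorbol 12,13-dibutyrate binding to PKC alpha, reported as percent inhibition. Triplicate measurements in one or three independent experiments depending on compound.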

The subject of data set [6] is THP-1 human monocytic leukemia cells. The data set is described as follows: Flow cytometry cell cycle analysis of THP-1 cells. Type of data set: cell-based. The conditions noted are these: THP-1 cells pretreated for 24 hours with 0.25 μg/ml.
Data set [7] concerns Mycobacterium tuberculosis H37Rv. The data set is described as follows: Microplate Alamar Blue Assay, Mycobacterium tuberculosis. As to conditions: 6.25 μg/ml. Format: cell-based. A general note: Alamar Blue is a resazurin reagent that responds to reducing activity.
For data set [8], the system named is genes whose products are involved in DNA synthesis. In words: cDNA microarray assay with THP-1 cells. The conditions noted are these: THP-1 cells treated for 23 hours with 0.25 μg/ml. Type of data set: cell-based, human.
In another data set the test system is tubulin. In words: Tubulin polymerization (assembly) inhibition. Format: biochemical. The conditions noted are these: b62 series; read-out: IC50 for inhibition of extent of tubulin assembly. The method, then: Only minimal inhibitory activity was observed. While compounds 15 and 8 did inhibit the rate of polymerization by over 50% at 40 μM (the highest concentration examined), an IC50 value for inhibition of assembly extent was obtained only for compound 18. […] Thus, it seems unlikely that the cytotoxic mechanism for these aaptamine analogs derives from an interaction with tubulin.
A number of the aaptamine derivatives whose synthesis is described here were examined for potential effects on tubulin assembly. These were compounds 2, 4, 5, 9a-c, and 10a-d. […] For comparison, in experiments performed contemporaneously, the potent colchicine site drug combretastatin A-4 yielded an IC50 value of about 2 μM.

Data set [9] is described as follows: Antimicrobial activity in the presence of human serum. Format: cell-based. From the text: The antimicrobial activity of phenols 15 and 18 in the presence of human serum was also investigated.
Setting [10] is: Table 4, read-out: Range of minimum inhibitory concentration.
Where [11] appears, read: Table 5, pancreas BXPC-3, read-out: Cancer Cell Line Results ED50.
The mark [12] stands for this setting: Table 5, colon KM 20L2, read-out: Cancer Cell Line Results ED50.
The mark [13] stands for this setting: Table 5, lung NCI-H460, read-out: Cancer Cell Line Results ED50.
The mark [14] stands for this setting: DU-145, Table 5, prostate DRU-145, read-out: Cancer Cell Line Results ED50.
The mark [15] stands for this setting: Table 5, CNS SF-268, read-out: Cancer Cell Line Results ED50.
Where [16] appears, read: MCF7, Table 5, breast MCF-7, read-out: Cancer Cell Line Results ED50.
Where [17] appears, read: Table 5, leukemia P388, read-out: Cancer Cell Line Results ED50.
Where [18] appears, read: read-out: Range of minimum inhibitory concentration.

One may read the inhibition as the percentage by which the read-out fell short of the control. For the molecule `COc1cc2c3c(ccnc3c1OC)N(C)C=C2` [Compound 4, 4-Methylaaptamine], the MIC in data set [1] (Table 4, Stenotrophomonas maltophil) is above 64 µg/mL; with Cryptococcus neoformans (setting [10]), above 64 µg/mL; in the data set with Enterobacter cloacae (setting [10]), above 64 µg/mL; with Candida albicans (setting [10]), above 64 µg/mL; in the data set with Escherichia coli (setting [10]), above 64 µg/mL; with Staphylococcus aureus (setting [10]), above 64 µg/mL. In addition, the MIC in the data set on Enterococcus faecalis (setting [10]), in the data set with Neisseria gonorrhoeae (setting [10]), in the data set with Micrococcus luteus (setting [10]) and in the data set on Streptococcus pneumoniae (setting [10]) was above 64 µg/mL each time. Further, the IC50 in the data set with pancreas BXPC-3 (Table 3, pancreas BXPC-3, read-out: Cancer cell growth inhibitory ED50) is above 10 µg/mL; with pancreas BXPC-3 (setting [11]), above 10 µg/mL; in the data set with colon KM 20L2 (Table 3, colon KM 20L2, read-out: Cancer cell growth inhibitory ED50), above 10 µg/mL; in the data set on colon KM 20L2 (setting [12]), above 10 µg/mL; with lung NCI-H460 (Table 3, lung NCI-H460, read-out: Cancer cell growth inhibitory ED50) it was above 10 µg/mL; in the data set with lung NCI-H460 (setting [13]), above 10 µg/mL. The IC50 in the data set on prostrate DU-145 (setting [14]) is above 10 µg/mL; in the data set with prostrate DU-145 (Table 3, prostrate DU-145, read-out: Cancer cell growth inhibitory ED50), above 10 µg/mL; in the data set with CNS SF-268 (Table 3, CNS SF-268, read-out: Cancer cell growth inhibitory ED50) it was above 10 µg/mL; in the data set with CNS SF-268 (setting [15]) it was above 10 µg/mL; in the data set with breast MCF-7 (MCF7, Table 3, breast MCF-7, read-out: Cancer cell growth inhibitory ED50), above 10 µg/mL; in the data set on breast MCF-7 (setting [16]), above 10 µg/mL. In addition, the IC50 was above 10 µg/mL in data set [4] (P388, Table 3, leukemia P-388, read-out: Cancer cell growth inhibitory ED50) and above 10 µg/mL in data set [4] (setting [17]). On PKC alpha [2] (30 μM compound, 1 μM phorbol 12-myristate 13-acetate, 100 μg/ml phospholipid, mean±SEM, three experiments), the inhibition at 30 µM was at most 6%. For the same molecule, the “toxicity to Vero cells” value with Vero cells is listed as “low toxicity”. Also, the “antiviral activity against HSV-1” value in [3] was “potent antiviral activity”.

A word on the melting point: it is the temperature of the solid-liquid transition. In the case of `COc1cc2c3c(cc[n+](Cc4ccccc4)c3c1OC)N(Cc1ccccc1)C=C2.[Cl-]` [Compound 10a, 1,4-Bis-(benzyl)-8,9-dimethoxy-4H-benzo[de][1,6]naphthyridin-1-ium chloride], the melting point is 175 °C (dec.). Also, the “Range of minimum inhibitory concentration” value in data set [1] (Table 6) is “* (no inhibition at 64 μg/mL)”. In addition, the inhibition at 30 µM on PKC alpha [5] was determined as 11.8%. Moreover, in the data set on Cryptococcus neoformans (Table 6), the “Range of minimum inhibitory concentration” value is listed as “* (no inhibition at 64 μg/mL)”. In addition, in data set [6], the “cell cycle effect (propidium iodide flow cytometry)” value was “accumulation of cells in the GI phase”. Also, in the data set on pancreas BXPC-3 (setting [11]), the IC50 was 0.061 µg/mL. In addition, at PKC alpha [2], the “Hill coefficient of PKC inhibition curve” value was 1.5±0.1, the IC50 was found to be 20.8 ± 2.5 µM and the inhibition at 30 µM stood at 71.1 ± 4.5%. Moreover, the “Range of minimum inhibitory concentration” value in the data set with Enterobacter cloacae (Table 6) is given as “* (no inhibition at 64 μg/mL)”. Also, in data set [7], the inhibition at 6.25 µg/mL was found to be 98%. In the data set on Candida albicans (Table 6), the “Range of minimum inhibitory concentration” value is “* (no inhibition at 64 μg/mL)”. In addition, the “Range of minimum inhibitory concentration” value in the data set on Escherichia coli (Table 6) turned out to be 8 µg/mL. Moreover, in the data set on Staphylococcus aureus (Table 6), the “Range of minimum inhibitory concentration” value was “* (no inhibition at 64 μg/mL)”. For the same molecule, in the data set on colon KM 20L2 (setting [12]), the IC50 came to 0.055 µg/mL. The “down-regulation of several genes involved in DNA synthesis” value in data set [8] is given as 5- to 7 fold. For the same molecule, the IC50 in the data set on lung NCI-H460 (setting [13]) was determined as 0.26 µg/mL. The IC50 in the data set with prostrate DU-145 (setting [14]) is 0.036 µg/mL. In the data set on CNS SF-268 (setting [15]), the IC50 was 0.064 µg/mL. In the data set with breast MCF-7 (setting [16]), the IC50 was 0.27 µg/mL. For the same molecule, in the data set with Enterococcus faecalis (Table 6), the “Range of minimum inhibitory concentration” value amounted to 32 µg/mL. In the data set with Neisseria gonorrhoeae (Table 6), the “Range of minimum inhibitory concentration” value was found to be 0.25 µg/mL. Moreover, the IC50 in data set [4] (setting [17]) worked out at 0.234 µg/mL. Besides, the “Range of minimum inhibitory concentration” value with Micrococcus luteus (Table 6) was 0.5 to 2 µg/mL. The “Range of minimum inhibitory concentration” value with Streptococcus pneumoniae (Table 6) came out at 32 µg/mL.

On to `COc1cc2ccnc3c2c(c1O)NC=C3` [Compound 18, 9-Demethylaaptamine hydrobromide], for which the MIC was above 64 µg/mL in data set [1]; 32 µg/mL in the data set with Cryptococcus neoformans (setting [18]); above 64 µg/mL in the data set on Enterobacter cloacae (setting [18]); 64 µg/mL in the data set on Candida albicans (setting [18]); 32 to 64 µg/mL with Escherichia coli (setting [18]); 16 µg/mL with Staphylococcus aureus (setting [18]). Also, the MIC in the data set on Enterococcus faecalis (setting [18]) was 8 to 32 µg/mL; in the data set with Neisseria gonorrhoeae (setting [18]), above 0.5 µg/mL; with Micrococcus luteus (setting [18]), 8 µg/mL; in the data set on Streptococcus pneumoniae (setting [18]), 2 to 4 µg/mL. Besides, the IC50 in the data set on pancreas BXPC-3 (BXPC-3, read-out: Cancer cell growth inhibitory ED50) came out at 1.6 µg/mL; in the data set on tubulin, 37 ± 4 µM; in the data set on colon KM 20L2 (KM-20L2, read-out: Cancer cell growth inhibitory ED50), 1.7 µg/mL; in the data set on lung NCI-H460 (NCI-H460, read-out: Cancer cell growth inhibitory ED50), 2 µg/mL; in the data set on prostrate DU-145 (DU-145, read-out: Cancer cell growth inhibitory ED50), 1.8 µg/mL; with CNS SF-268 (SF-268, read-out: Cancer cell growth inhibitory ED50) it was 1.4 µg/mL. The IC50 with breast MCF-7 (MCF7, read-out: Cancer cell growth inhibitory ED50) was determined as 0.66 µg/mL; in [4] (P388, read-out: Cancer cell growth inhibitory ED50), 0.22 µg/mL. In addition, the “minimum inhibitory concentrations in the presence of human serum versus absence of serum” value in data set [9] is “identical or one 2-fold dilution lower”.
